Laboratory results: patent US11186551B2, “Composition of scalable thyrointegrin antagonists with improved retention in tumors” (NanoPharmaceuticals, LLC, priority 2020, dated 2021)
“Also recorded” adds a separate entry of the source.

Key:
[1] = mouse, in vivo, sc, 10 mg/kg
Procedure: Concentrations are shown as recorded 3 h following administration.
Each group contained 4 mice.

[2] = test system: angiogenesis induced by bFGF, VEGF, HGF; assay: Anti-angiogenic effect in CAM Models in the presence of growth factors; format: in vivo
Excerpt: In addition to good initial uptake, the disclosed compounds also have good anti-angiogenic effect. […] Specifically, Compound 2 is effective at reducing the percentage of angiogenesis present in CAM Models, when administered in the presence of the following growth factors: bFGF, VEGF, VEGF+bFGF, and bFGF+VEGF+HGF.
This broad spectrum anti-angiogenic effect is in contrast to existing therapeutic compounds/compositions such as AVASTIN® (bevacizumab).

U87-luc xenografts = assay: GBM xenograft efficacy: tumor weight and luminescent signal intensity; format: in vivo, Nude mice; settings: for Tumor weight after 3 weeks of treatment: control approximately 600 mg; for Luminescent signal intensity after 3 weeks of treatment: control approximately 600,000p/s
Procedure: The efficacy of these compounds/compositions with respect to GBM tumors will now be described with reference to FIGS. 30-33. The study protocol is as follows: Nude mice having U87-luc xenografts were treated with varying dosages of Compound 2 (fb-PMT) for 3 weeks. Efficacy was determined by tumor weight and luminescent signal intensity compared with a control group. Further, treatment efficacy was also evaluated in comparison with known potential treatment Cilengitide. Efficacy was also determined again after an additional 3 week period with no additional treatment.

[3] = mouse, in vivo, sc, 10 mg/kg; remark: listed apart in the source
Procedure: Again, a single subcutaneous injection was used in mice. The administered dose was 10 mg/Kg.

[4] = cynomolgus monkey, in vivo, sc, 15 mg/kg
[5] = Compound 2 6 mg/kg, Cilengitide 75 mg/kg
[6] = Compound 2 6 mg/kg, Cilengitide 75 mg/kg, control approximately 750 mg
[7] = Compound 2 6 mg/kg, Cilengitide 75 mg/kg, control over 800,000p/s

di-tbutylbenzyl conjugated to triazole tetrac by polyethylene glycol [Compound 4]
Average Brain Concentration (ng/g), 3 hour [1]: 922 ng/g

bevacizumab [AVASTIN®]
Anti-angiogenic effect in CAM Model against VEGF alone ([2]; VEGF alone): primarily effective against VEGF alone | Percent of angiogenesis in CAM Model for bFGF or HGF ([2]; bFGF or HGF): does not meaningfully reduce | Anti-angiogenic effect in CAM Model, VEGF combined with other growth factors ([2]; bFGF or bFGF and HGF present along with VEGF): does not demonstrate good effect

fluorobenzyl conjugated to triazole tetrac by polyethylene glycol [Compound 2]
Percentage of angiogenesis in CAM Model ([2]; 1.0 μg, growth factors bFGF, VEGF, VEGF+bFGF, bFGF+VEGF+HGF): only slightly above baseline; also recorded: inhibition of angiogenesis against all three growth factors, both alone and in combination | Tumor weight after 3 weeks of treatment (U87-luc xenografts; [5]): under 50 mg | Tumor weight after 3 weeks of treatment followed by 3 weeks without treatment (U87-luc xenografts; [6]): further reduction | Luminescent signal intensity after 3 weeks of treatment (U87-luc xenografts; [5]): negligible levels | Luminescent signal intensity after 3 weeks of treatment followed by 3 weeks without treatment (U87-luc xenografts; [7]): even further reduction | Tumor weight after 3 weeks of treatment (U87-luc xenografts; all doses 1, 3, 6 and 10 mg/kg): under 100 mg | Tumor weight after 3 weeks of treatment followed by 3 weeks off treatment (U87-luc xenografts; all doses 1, 3, 6 and 10 mg/kg, control approximately 750 mg): further and additional reduction | Luminescent signal intensity after 3 weeks of treatment (U87-luc xenografts; all doses 1, 3, 6 and 10 mg/kg): under 100,000 p/s | Luminescent signal intensity after 3 weeks of treatment followed by 3 weeks off treatment (U87-luc xenografts; all doses 1, 3, 6 and 10 mg/kg, control over 800,000p/s): further and additional reduction | Average Brain Concentration (ng/g), 3 hour [1]: 228 ng/g | Brain tissue uptake and retention over time [3]: uptake and retention over a 24 hour period | Time of plasma concentration peak [4]: 1 to 4 h

CC(C)[C@H]1C(=O)N[C@@H](CCCN=C(N)N)C(=O)NCC(=O)N[C@@H](CC(=O)O)C(=O)N[C@H](Cc2ccccc2)C(=O)N1C [Cilengitide, reference compound]
Tumor weight after 3 weeks of treatment (U87-luc xenografts; [5]): approximately 300 mg | Tumor weight after 3 weeks of treatment followed by 3 weeks without treatment (U87-luc xenografts; [6]): over 400 mg | Luminescent signal intensity after 3 weeks of treatment (U87-luc xenografts; [5]): approximately 300,000 p/s | Luminescent signal intensity after 3 weeks of treatment followed by 3 weeks without treatment (U87-luc xenografts; [7]): over 500,000 p/s
